Data: US5034396A, “Method of treating depression with optically active isomers of 20,21-dinoreburnamenines” (Roussel Uclaf, priority 1987, dated 1991)

Tests used:
[1] = tested on: Sprague Dawley rats; experiment: Test of anti-depressive activity (forced swimming immobility); assay type: in vivo; settings: Rattus norvegicus, ip, immobility during 5 minutes, intraperitoneally 24 hours, 5 hours and a half-hour before the test, read-out: DA50 (the source's name)
Experimental: (4) Test of anti-depressive activity
The tests were carried out on groups of 5 Sprague Dawley rats and the non-conditioned animals were put for 15 minutes in a vertical perspex cylinder (diameter: 18 cm, height: […]) containing water at 25° C. to a height of 15 cm (initial swimming test). They were then dried for 15 minutes in an enclosure heated to 32° C. and 24 hours later, they were replaced in the cylinder filled with water, and the total duration of the periods of immobility was measured during 5 minutes. The compound was administered intraperitonally successively 24 hours, 5 hours and a half-hour before the test. The first administration was made immediately after the first swimming test and just before replacing the animals in their breeding box. The averages of the groups treated were compared with those of the control group by the Dunnett test.

[2] = tested on: alpha2 adrenergic receptors; experiment: Affinity for the alpha2 adrenergic receptors (3H rauwolscine displacement, rat cortex membranes); assay type: binding; settings: 3H rauwolscine 0.15 nM, 45 minutes at 25° C., from CD (phentolamine) and CX (product) concentrations inhibiting 50% of specific fixation
Experimental: (1) Affinity for the alpha2 adrenergic receptors
10 cortices removed from the brains of male rats weighing an average of 150 g were homogenized in 90 ml of sucrose 0.32M and after centrifuging the homogenized mixture at 1,000 g for 10 minutes at 0° C., the supernatant was centrifuged at 30,000 g for 10 minutes at 0° to 4° C. The new residue obtained was suspended in 480 ml of NaKPO4 buffer, pH 7.4, 50 mM. 2 ml of the suspension were then incubated for 45 minutes at 25° C. in the presence of ^3 H rauwolscine at a concentration of 0.15 nM: (i) alone (ii) with increasing concentrations of the product under test, or (iii) to determine the non-specific fixation, with non-radioactive phentolamine at a concentration of 10^-5 M. The incubated suspensions were filtered on Whatman GF/C and the filters were washed three times with 5 ml of NaKPO4 buffer, pH 7.4 at 0° C. The radioactivity of the filters was measured by liquid scintillation.
The affinity of the product tested for the alpha2 adrenegic receptors was given relative to phentolamine as reference product.
CD=concentration of phentolamine inhibiting 50% of the specific fixation of the ^3 H rauwolscine:
CX=concentration of the product under test inhibiting 50% of the specific fixation of the ^3 H rauwolscine.

[3] = tested on: mice; experiment: Hypobaric anoxia test on mice; assay type: in vivo; settings: depression of 600 mm Hg, max 3 minutes, intraperitoneally 60 minutes before the test, dose not given
Experimental: (2) Hypobaric anoxia test on mice
This consisted of measuring over a maximum duration of 3 minutes the survival time of mice placed in a 2 liter enclosure in which there was a depression of 600 mm Hg. The products were administered intraperitoneally at a volume of 0.2 ml/10 g 60 minutes before the test.

[4] = tested on: mice; experiment: Test of neuronal protection in mice (kainic acid striatal lesion, serum enolase gamma-gamma); assay type: in vivo; settings: mouse, 2 μg kainic acid in right striatum; product intraperitoneally 60 minutes before; blood samples 24 hours later; dose not given
Experimental: (3) Test of neuronal protection in mice
A cerebral lesion was carried out on the mouse by injection in the right striatum of 2 μg of kainic acid in a volume of 0.5 μl. […] The products were injected intraperitonally 60 minutes before the neurotoxic and the blood samples were taken 24 hours later.

| SMILES | ED50 [1] | ARL (relative affinity for alpha2 adrenergic receptors, relative to phentolamine) [2] | Survival time [3] | enolase gamma-gamma [4] |
| --- | --- | --- | --- | --- |
| O[C@@H]1C[C@H]2CCCN3CCc4c(n1c1ccccc41)[C@H]23 [Example 4, (3α, 14β) 14,15-dihydro-20,21-dinoreburnamenin-14-ol] | ~5 mg/kg | 57 | – | – |
| C1=Cn2c3c(c4ccccc42)CCN2CCC[C@@H]1[C@H]32 [Example 6, (16α) 20,21-dinoreburnamenine] | – | 633 | – | – |
| C1=Cn2c3c(c4ccccc42)CCN2CCC[C@H]1[C@@H]32 [Example 5, (3α) 20,21-dinoreburnamenine] | – | 8 | – | – |
| O[C@H]1C[C@@H]2CCCN3CCc4c(n1c1ccccc41)[C@@H]23 [Example 3, (14α, 16α) 14,15-dihydro-20,21-dinoreburnamenin-14-ol] | ~10 mg/kg | 0.3 | +37% | -24% |
